The values below come from PMC3867523 (Journal of hepatology, 2013).

The target of the experiment is HLA-B*27:05 (Homo sapiens, UniProt P01889, D138H/D201E/E176V/E204Q/G107R/H137Y/K202T/N104T/N87E/Q56L/Q94K/R106L/R155S/R180L/S101D/S121N/S48T/Y140D/Y33H/Y91C). Description: biochemical. It counts as binding.

Ends that are not written are not given here.

Broadly, the IC50 is the concentration that gives 50% inhibition. Higher therefore signals weaker potency. Regarding ARMILMTHF [NS5B-2841], the midpoint of inhibition, the IC50, lay at 1.1 nM. ARHTPVNSW [NS5B-2820] displayed an IC50 of 338 nM. The sequence GRAAICGKY [NS5B-2936] came in with an IC50 of 1 nM.
